Source: US5298414A (priority 1989, dated 1994)
“Also recorded” adds a separate entry of the source. Like-named read-outs stand apart in the source and are kept apart here.

Columns and labels:
[1] = target: T1, morphine dehydrogenase (MDH) (Pseudomonas putida, UniProt Q02198); test: biochemical; type: biochemical, Pseudomonas putida MlO; conditions: for (b) Relative activity: 16 h at 4° C. then 10 min at 30° C., no addition gives 16
[2] = target: T1, morphine dehydrogenase (MDH); type: biochemical, Pseudomonas putida MlO
[3] = target: T1, morphine dehydrogenase (MDH); test: Substrate specificity of morphine dehydrogenase (Example 4); type: biochemical, Pseudomonas putida MlO; conditions: 0.35 μg purified enzyme, pH 9.5
[4] = target: T1, morphine dehydrogenase (MDH); test: Cofactor requirement of MDH; type: biochemical, Pseudomonas putida MlO
[5] = test system: washed cells of P. putida MlO; type: cell-based, Pseudomonas putida MlO
[6] = test system: acetylmorphine carboxylesterase (AMCE); test: Substrate specificity of the AMCE (HPLC); type: biochemical, Rhodococcus Hl; conditions: substrate 1.0 mM, purified AMCE 5 U, potassium phosphate buffer pH 7.5, 30° C.
[7] = target: T1, morphine dehydrogenase (MDH); test: Non-oxidation of steroids by morphine dehydrogenase (Example 2 standard assay); type: biochemical, Pseudomonas putida MlO; conditions: morphine replaced by the steroid in the standard assay
[8] = 10 min, read-out: (a) Relative activity
[9] = 16 h, read-out: (b) Relative activity

T1 sequence (Q02198 whole entry): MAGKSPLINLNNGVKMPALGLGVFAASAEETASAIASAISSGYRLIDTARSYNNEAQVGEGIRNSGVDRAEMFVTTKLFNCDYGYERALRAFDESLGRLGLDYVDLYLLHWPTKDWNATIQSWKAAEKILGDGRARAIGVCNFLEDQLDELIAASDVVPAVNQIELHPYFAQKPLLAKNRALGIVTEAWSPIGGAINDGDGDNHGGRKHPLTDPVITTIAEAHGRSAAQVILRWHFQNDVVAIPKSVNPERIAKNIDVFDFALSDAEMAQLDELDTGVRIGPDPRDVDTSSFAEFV

## O=C(O)CN(CCN(CC(=O)O)CC(=O)O)CC(=O)O [EDTA]
[1]; [8]
  activity at 500 µM: 104%
[1]; [9]
  activity at 500 µM: 18%

## CN1CC[C@]23c4c5ccc(O[C@@H]6O[C@H](C(=O)O)[C@@H](O)[C@H](O)[C@H]6O)c4O[C@H]2[C@@H](O)C=C[C@H]3[C@H]1C5 [morphine glucuronide]
[2]; pH 10
  ability to serve as MDH substrate: completely inactive; also recorded: Inactivity

## O=S(=O)([O-])[O-].[Cu+2] [CuSO4]
[1]; reagent 0.1 mM, 10 min at room temperature, 100% = 67 U/mg
  (a) Relative activity: 34%
[1]; reagent 0.1 mM
  (b) Relative activity: 5%

## CCCO [propanol]
[3]; alcohol substrates 50 mM
  activity relative to 3 mM morphine: zero

## 3-acetylpyridine ADP
[4]
  operability as cofactor for MDH: operable

## COC1=CC=C2[C@H]3Cc4ccc(OC)c5c4[C@@]2(CCN3C)[C@H]1O5 [thebaine]
[2]; pH 10
  ability to serve as MDH substrate: completely inactive
[5]
  metabolism by washed cells grown on heroin: not degraded at all

## CC(=O)Oc1ccc2c3c1O[C@H]1[C@@H](O)C=C[C@H]4[C@@H](C2)N(C)CC[C@@]341 [3-acetylmorphine]
[6]
  time taken to reduce the substrate concentration by 20%: 2 min

## CC(=O)O[C@H]1C=C[C@H]2[C@H]3Cc4ccc(O)c5c4[C@@]2(CCN3C)[C@H]1O5 [6-acetylmorphine]
[6]
  time taken to reduce the substrate concentration by 20%: 240 min
[2]; pH 10
  ability to serve as MDH substrate: completely inactive; also recorded: no activity
[3]; alkaloid substrates 3 mM
  activity relative to 3 mM morphine: zero

## O=C(O)CI [Iodoacetate]
[1]; [8]
  activity at 100 µM: 61%
  activity at 1000 µM: 58%
  activity at 10000 µM: 54%
[1]; [9]
  activity at 10000 µM: 30%

## CC(C)O [propan-2-ol]
[3]; alcohol substrates 50 mM
  activity relative to 3 mM morphine: zero

## O=C(O)c1cc[c]([Hg+])cc1.[OH-] [p-Hydroxymercuribenzoate]
[1]; reagent 0.01 mM, 10 min at room temperature, 100% = 67 U/mg
  (a) Relative activity: 0%
[1]; reagent 0.01 mM
  (b) Relative activity: 0%
[1]; reagent 0.01 mM, incubation (a)
  activity recovered after incubation with 3 mM dithiothreitol for 10 min: 45%
[1]; reagent 0.01 mM, incubation (b)
  activity recovered after incubation with 3 mM dithiothreitol for 10 min: 23%

## O[C@H](CS)[C@H](O)CS (racemic) [Dithiothreitol]
[1]; [8]
  activity at 1000 µM: 97%
[1]; [9]
  activity at 1000 µM: 64%

## COc1ccc2c3c1O[C@H]1C(=O)C=C[C@H]4[C@@H](C2)N(C)CC[C@]314 [codeinone]
[2]
  reverse direction reaction with NADPH: catalysed the oxidation of NADPH
[2]; pH 10
  ability to serve as MDH substrate: completely inactive

## CCO [ethanol]
[2]
  ability to serve as MDH substrate: negative result
[2]; pH 10
  ability to serve as MDH substrate: completely inactive; also recorded: does not oxidise
[3]; alcohol substrates 50 mM
  activity relative to 3 mM morphine: zero

## c1ccc(-c2ccccn2)nc1 [2,2'-Dipyridyl]
[1]; [8]
  activity at 50 µM: 75%
  activity at 500 µM: 67%
[1]; [9]
  activity at 500 µM: 9%

## OC1CCCCC1 [cyclohexanol]
[3]; alcohol substrates 50 mM
  activity relative to 3 mM morphine: zero

## COc1ccc2c3c1O[C@H]1C(=O)CC[C@@]4(O)[C@@H](C2)N(C)CC[C@]314 [oxycodone]
[2]; pH 10
  ability to serve as MDH substrate: completely inactive; also recorded: no activity

## CCC(C)O (stereo not drawn) [butan-2-ol]
[3]; alcohol substrates 50 mM
  activity relative to 3 mM morphine: zero

## OCCS [Mercaptoethanol]
[1]; [8]
  activity at 1000 µM: 100%
[1]; [9]
  activity at 1000 µM: 73%

## NC(=O)c1ccc[n+]([C@@H]2O[C@H](COP(=O)([O-])OP(=O)(O)OC[C@H]3O[C@@H](n4cnc5c(N)ncnc54)[C@H](OP(=O)(O)O)[C@@H]3O)[C@@H](O)[C@H]2O)c1 [NADP^+, nicotinamide adenine dinucleotide phosphate]
[4]
  operability as cofactor for MDH: absolute requirement

## CN1CC[C@]23c4c5ccc(OCCN6CCOCC6)c4O[C@H]2[C@@H](O)C=C[C@H]3[C@H]1C5 [pholcodeine]
[2]; pH 10
  ability to serve as MDH substrate: completely inactive; also recorded: Inactivity

## c1cnc2c(c1)ccc1cccnc12 [1,10-Phenanthroline]
[1]; [8]
  activity at 50 µM: 76%
  activity at 500 µM: 61%
[1]; [9]
  activity at 500 µM: 14%

## C[C@]12CC[C@@H](O)C[C@@H]1CC[C@@H]1[C@@H]2CC[C@]2(C)C(=O)CC[C@@H]12 (stereo in doubt) [androsterone]
[3]; final concentration 10 Mm
  activity relative to 3 mM morphine: zero
[7]
  steroid dehydrogenase activity of MDH: No steroid dehydrogenase activity was detected

## NC(=O)c1ccc[n+]([C@@H]2O[C@H](COP(=O)([O-])OP(=O)(O)OC[C@H]3O[C@@H](n4cnc5c(N)ncnc54)[C@H](O)[C@@H]3O)[C@@H](O)[C@H]2O)c1 [NAD^+]
[4]
  operability as cofactor for MDH: shown not to be a substrate; also recorded: have not been found to be operable

## CCOc1ccc2c3c1O[C@H]1[C@@H](O)C=C[C@H]4[C@@H](C2)N(C)CC[C@@]341 [ethylmorphine]
[2]; pH 10
  activity relative to morphine: 1.2 times that of morphine
[5]
  metabolism by washed cells grown on heroin: readily metabolised

## CCN1C(=O)C=CC1=O [N-Ethylmaleimide]
[1]; [8]
  activity at 50 µM: 100%
  activity at 1000 µM: 58%
[1]; [9]
  activity at 1000 µM: 23%

## CN1CC[C@]23c4c5ccc(O)c4O[C@H]2[C@@H](O)C=C[C@H]3[C@H]1C5 [morphine]
[2]; pH 10
  specific activity as MDH substrate: 0.002 μmol/min./mg. protein
[3]; 3 mM substrate
  dehydrogenase activity: 0.0252 μmol NADPH/min

## Oc1cccc2cccnc12 [8-Hydroxyquinoline]
[1]; purified mdh, 10 min, 50 µM
  (a) Relative activity: 100%

## COc1ccc2c3c1O[C@H]1[C@@H](O)C=C[C@H]4[C@@H](C2)N(C)CC[C@@]341 [codeine]
[2]; pH 10
  activity relative to morphine: 1.7 times that of morphine
[3]; alkaloid substrates 3 mM
  activity relative to 3 mM morphine: 120%
[5]
  metabolism by washed cells grown on heroin: readily metabolised

## COc1ccc2c3c1O[C@H]1[C@@H](O)CC[C@H]4[C@@H](C2)N(C)CC[C@@]341 [dihydrocodeine]
[2]; pH 10
  ability to serve as MDH substrate: completely inactive; also recorded: did not show any activity
[3]; alkaloid substrates 3 mM
  activity relative to 3 mM morphine: 7.1%

## C[C@]12CC[C@H]3[C@@H](CCC4=CC(=O)CC[C@@]43C)[C@@H]1CC[C@@H]2O [testosterone]
[3]; final concentration 10 Mm
  activity relative to 3 mM morphine: zero
[7]
  steroid dehydrogenase activity of MDH: No steroid dehydrogenase activity was detected

## nicotinamide hypoxanthine diphosphate
[4]
  operability as cofactor for MDH: have not been found to be operable

## O=C(O)C(O)c1ccccc1 (racemic) [D,L-mandelic acid]
[3]; final concentration 10 Mm
  activity relative to 3 mM morphine: zero

## OCc1ccccc1 [benzyl alcohol]
[3]; alcohol substrates 50 mM
  activity relative to 3 mM morphine: zero
